Experimental data from the supplement of paper PMC11451515.

Tested on: SEM cells
Assay: cell viability relative to DMSO control; higher = less cytotoxic
Details: 48 h
In short: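 Leukemia cells (NOMO1 or SEM, 500 cells/well; P12-Ichikawa, 1000 cells/well) were seeded in 5 μl in 1536-well plates after at least four passages of adaptation to each medium. They received library compounds in DMSO by pin dosing, 11 threefold points from 47 μM to 0.79 nM. Luminescence with CellTiter-Glo One was read after 48 h at 37°C. Viability is stated per plate relative to DMSO wells, with cell-free wells as background.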

[1] = HPLM + 10% dialyzed FBS, 0.000781 µM
[2] = HPLM + 10% dialyzed FBS, 0.00234 µM
[3] = HPLM + 10% dialyzed FBS, 0.00702 µM
[4] = HPLM + 10% dialyzed FBS, 0.0211 µM
[5] = HPLM + 10% dialyzed FBS, 0.0632 µM
[6] = HPLM + 10% dialyzed FBS, 0.19 µM
[7] = HPLM + 10% dialyzed FBS, 0.569 µM
[8] = HPLM + 10% dialyzed FBS, 1.71 µM
[9] = HPLM + 10% dialyzed FBS, 5.12 µM
[10] = HPLM + 10% dialyzed FBS, 15.4 µM
[11] = HPLM + 10% dialyzed FBS, 46.1 µM
[12] = RPMI 5 mM glucose + 10% FBS, 0.000781 µM
[13] = RPMI 5 mM glucose + 10% FBS, 0.00234 µM
[14] = RPMI 5 mM glucose + 10% FBS, 0.00702 µM
[15] = RPMI 5 mM glucose + 10% FBS, 0.0211 µM
[16] = RPMI 5 mM glucose + 10% FBS, 0.0632 µM
[17] = RPMI 5 mM glucose + 10% FBS, 0.19 µM
[18] = RPMI 5 mM glucose + 10% FBS, 0.569 µM
[19] = RPMI 5 mM glucose + 10% FBS, 1.71 µM
[20] = RPMI 5 mM glucose + 10% FBS, 5.12 µM
[21] = RPMI 5 mM glucose + 10% FBS, 15.4 µM
[22] = RPMI 5 mM glucose + 10% FBS, 46.1 µM
[23] = RPMI 5 mM glucose + 10% dialyzed FBS, 0.000781 µM
[24] = RPMI 5 mM glucose + 10% dialyzed FBS, 0.00234 µM
[25] = RPMI 5 mM glucose + 10% dialyzed FBS, 0.00702 µM
[26] = RPMI 5 mM glucose + 10% dialyzed FBS, 0.0211 µM
[27] = RPMI 5 mM glucose + 10% dialyzed FBS, 0.0632 µM
[28] = RPMI 5 mM glucose + 10% dialyzed FBS, 0.19 µM
[29] = RPMI 5 mM glucose + 10% dialyzed FBS, 0.569 µM
[30] = RPMI 5 mM glucose + 10% dialyzed FBS, 1.71 µM
[31] = RPMI 5 mM glucose + 10% dialyzed FBS, 5.12 µM
[32] = RPMI 5 mM glucose + 10% dialyzed FBS, 15.4 µM
[33] = RPMI 5 mM glucose + 10% dialyzed FBS, 46.1 µM

CN[C@@H](C)C(=O)N[C@H]1CCCC[C@H]2CC[C@@H](C(=O)N[C@@H](c3ccccc3)c3cn(CCCCc4ccc(CCCCn5cc([C@@H](NC(=O)[C@@H]6CC[C@@H]7CCCC[C@H](NC(=O)[C@H](C)NC)C(=O)N76)c6ccccc6)nn5)cc4)nn3)N2C1=O
cell viability [1]: 73.5% | cell viability [2]: 96.1% | cell viability [3]: 90.5% | cell viability [4]: 100% | cell viability [5]: 90.5% | cell viability [6]: 89.2% | cell viability [7]: 88.1% | cell viability [8]: 91% | cell viability [9]: 92.2% | cell viability [10]: 103% | cell viability [11]: 69.2% | cell viability [12]: 90.3% | cell viability [13]: 97.9% | cell viability [14]: 94.9% | cell viability [15]: 95.6% | cell viability [16]: 83.4% | cell viability [17]: 89.5% | cell viability [18]: 82.2% | cell viability [19]: 87.2% | cell viability [20]: 94.8% | cell viability [21]: 85% | cell viability [22]: 35.3% | cell viability [23]: 95.8% | cell viability [24]: 90.5% | cell viability [25]: 82% | cell viability [26]: 95.2% | cell viability [27]: 99.4% | cell viability [28]: 86.8% | cell viability [29]: 82.3% | cell viability [30]: 95.3% | cell viability [31]: 82.4% | cell viability [32]: 84.4% | cell viability [33]: 54.4%

CC(Oc1ccc(O)cc1)(P(=O)(O)O)P(=O)(O)O
cell viability [1]: 108% | cell viability [2]: 105% | cell viability [3]: 98.2% | cell viability [4]: 108% | cell viability [5]: 109% | cell viability [6]: 104% | cell viability [7]: 86.1% | cell viability [8]: 101% | cell viability [9]: 83.3% | cell viability [10]: 65.5% | cell viability [11]: 28.5% | cell viability [12]: 107% | cell viability [13]: 110% | cell viability [14]: 103% | cell viability [15]: 116% | cell viability [16]: 109% | cell viability [17]: 96.2% | cell viability [18]: 92.3% | cell viability [19]: 105% | cell viability [20]: 83.1% | cell viability [21]: 48.4% | cell viability [22]: 25.1% | cell viability [23]: 98.8% | cell viability [24]: 85.7% | cell viability [25]: 103% | cell viability [26]: 97.9% | cell viability [27]: 113% | cell viability [28]: 110% | cell viability [29]: 90.1% | cell viability [30]: 96.3% | cell viability [31]: 74.9% | cell viability [32]: 55.1% | cell viability [33]: 28.6%

c1ccc2c(Oc3nc(Nc4ccc(N5CCOCC5)cc4)c4ncn(C5CCCCC5)c4n3)cccc2c1
cell viability [1]: 91% | cell viability [2]: 96.7% | cell viability [3]: 101% | cell viability [4]: 112% | cell viability [5]: 120% | cell viability [6]: 116% | cell viability [7]: 131% | cell viability [8]: 120% | cell viability [9]: 99.7% | cell viability [10]: 100% | cell viability [11]: 67.1% | cell viability [12]: 101% | cell viability [13]: 122% | cell viability [14]: 138% | cell viability [15]: 133% | cell viability [16]: 133% | cell viability [17]: 136% | cell viability [18]: 125% | cell viability [19]: 139% | cell viability [20]: 108% | cell viability [21]: 105% | cell viability [22]: 67% | cell viability [23]: 108% | cell viability [24]: 141% | cell viability [25]: 115% | cell viability [26]: 130% | cell viability [27]: 142% | cell viability [28]: 129% | cell viability [29]: 126% | cell viability [30]: 109% | cell viability [31]: 126% | cell viability [32]: 110% | cell viability [33]: 53.4%

CCOC(=O)c1ccc(C#Cc2ccc3c(c2)C(C)(C)CCS3)nc1
cell viability [1]: 105% | cell viability [2]: 105% | cell viability [3]: 109% | cell viability [4]: 116% | cell viability [5]: 111% | cell viability [6]: 75.4% | cell viability [7]: 114% | cell viability [8]: 118% | cell viability [9]: 108% | cell viability [10]: 114% | cell viability [11]: 102% | cell viability [12]: 98% | cell viability [13]: 121% | cell viability [14]: 122% | cell viability [15]: 126% | cell viability [16]: 118% | cell viability [17]: 75.6% | cell viability [18]: 121% | cell viability [19]: 122% | cell viability [20]: 116% | cell viability [21]: 108% | cell viability [22]: 113% | cell viability [23]: 89.2% | cell viability [24]: 100% | cell viability [25]: 101% | cell viability [26]: 98.1% | cell viability [27]: 106% | cell viability [28]: 66.4% | cell viability [29]: 99.5% | cell viability [30]: 94.8% | cell viability [31]: 90% | cell viability [32]: 89.3% | cell viability [33]: 93.5%

N=C(N)c1ccc(OCCCCCOc2ccc(C(=N)N)cc2)cc1
cell viability [1]: 72.7% | cell viability [2]: 115% | cell viability [3]: 112% | cell viability [4]: 125% | cell viability [5]: 123% | cell viability [6]: 127% | cell viability [7]: 118% | cell viability [8]: 122% | cell viability [9]: 106% | cell viability [10]: 101% | cell viability [11]: 46.4% | cell viability [23]: 64.9% | cell viability [24]: 111% | cell viability [25]: 146% | cell viability [26]: 138% | cell viability [27]: 121% | cell viability [28]: 118% | cell viability [29]: 105% | cell viability [30]: 103% | cell viability [31]: 113% | cell viability [32]: 120% | cell viability [33]: 57.8%

CC(C)(Cc1ccc2ccccc2c1)NC[C@@H](O)COc1cccc(Cl)c1C#N
cell viability [1]: 128% | cell viability [2]: 121% | cell viability [3]: 125% | cell viability [4]: 121% | cell viability [5]: 124% | cell viability [6]: 123% | cell viability [7]: 119% | cell viability [8]: 120% | cell viability [9]: 108% | cell viability [10]: 96.7% | cell viability [11]: 65.7% | cell viability [12]: 127% | cell viability [13]: 113% | cell viability [14]: 120% | cell viability [15]: 116% | cell viability [16]: 124% | cell viability [17]: 121% | cell viability [18]: 115% | cell viability [19]: 126% | cell viability [20]: 86% | cell viability [21]: 128% | cell viability [22]: 62.8%

CCCCc1oc2ccc(NS(C)(=O)=O)cc2c1C(=O)c1ccc(OCCCN(CCCC)CCCC)cc1
cell viability [1]: 62.8% | cell viability [2]: 66% | cell viability [3]: 80.9% | cell viability [4]: 87.6% | cell viability [5]: 92.6% | cell viability [6]: 86.6% | cell viability [7]: 101% | cell viability [8]: 98.7% | cell viability [9]: 70.2% | cell viability [10]: 78.6% | cell viability [11]: 8.35% | cell viability [12]: 88.9% | cell viability [13]: 87.5% | cell viability [14]: 98.2% | cell viability [15]: 109% | cell viability [16]: 95.6% | cell viability [17]: 92.6% | cell viability [18]: 101% | cell viability [19]: 108% | cell viability [20]: 96.3% | cell viability [21]: 94.1% | cell viability [22]: 14.9% | cell viability [23]: 94.8% | cell viability [24]: 94.1% | cell viability [25]: 98.4% | cell viability [26]: 108% | cell viability [27]: 107% | cell viability [28]: 99.3% | cell viability [29]: 100% | cell viability [30]: 109% | cell viability [31]: 97% | cell viability [32]: 94.7% | cell viability [33]: 6.45%

CCC1=C(C)CN(C(=O)NCCc2ccc(S(=O)(=O)NC(=O)N[C@H]3CC[C@H](C)CC3)cc2)C1=O
cell viability [1]: 78.7% | cell viability [2]: 91.5% | cell viability [3]: 93.2% | cell viability [4]: 93.3% | cell viability [5]: 86.4% | cell viability [6]: 104% | cell viability [7]: 103% | cell viability [8]: 109% | cell viability [9]: 114% | cell viability [10]: 104% | cell viability [11]: 116% | cell viability [12]: 81.1% | cell viability [13]: 92.2% | cell viability [14]: 95% | cell viability [15]: 85.5% | cell viability [16]: 93% | cell viability [17]: 92.6% | cell viability [18]: 94.8% | cell viability [19]: 100% | cell viability [20]: 94.7% | cell viability [21]: 92.6% | cell viability [22]: 94.7% | cell viability [23]: 94.9% | cell viability [24]: 87.6% | cell viability [25]: 101% | cell viability [26]: 86.2% | cell viability [27]: 93.7% | cell viability [28]: 94.8% | cell viability [29]: 96.1% | cell viability [30]: 87.7% | cell viability [31]: 94.3% | cell viability [32]: 96% | cell viability [33]: 94.1%
